These results are taken from patent US20240026086A1, “POLYPHENOL DERIVATIVE AND POLYMER MATERIAL” (TOPPAN INC., priority 2020, published 2024).

Each structure is given as a SMILES string. Some results are limits rather than exact numbers.

This experiment deals with E. coli. Put plainly: Antibacterial test of coating films on glass substrate in accordance with JIS 22801. It is filed as cell-based. Particulars: against E. coli. Here is the method:
The polyphenol derivatives (polyphenol derivatives 1 to 4) in Examples 1 to 4 and the tannic acid in Comparative Example 1 were each applied by the above method onto a 5 cm×5 cm glass substrate at a weight of 1.2 mg/cm 2 to yield a coating film. The glass substrate samples in Examples and Comparative Example each having the coating film formed by the above method were subjected to antibacterial test by a method in accordance with JIS 22801, and antibacterial activity values (against E. coli) were determined.

For `O=C(OC[C@H]1O[C@@H](OC(=O)c2cc(O)c(O)c(OC(=O)c3cc(O)c(O)c(O)c3)c2)[C@H](OC(=O)c2cc(O)c(O)c(OC(=O)c3cc(O)c(O)c(O)c3)c2)[C@@H](OC(=O)c2cc(O)c(O)c(OC(=O)c3cc(O)c(O)c(O)c3)c2)[C@@H]1OC(=O)c1cc(O)c(O)c(OC(=O)c2cc(O)c(O)c(O)c2)c1)c1cc(O)c(O)c(OC(=O)c2cc(O)c(O)c(O)c2)c1` [compound 1, tannic acid], the “Antibacterial test (antibacterial activity value)” value (coating film 1.2 mg/cm 2 on 5 cm×5 cm glass substrate) is on record as greater than 5.8. Further, the “antibacterial activity (in words)” value (coating film) is “antibacterial activity was sufficiently achieved”.
